The subject of data set [1] is primary MM cells. Put plainly: Assay on primary MM cells of patients (flow cytometry). It is filed as cell-based, human. To be noted: n=5, with IL-6. On the procedure: (§1) Primary MM cells were treated with Ironomycin (A) or AM-23 (B) and incubated during 96H with IL-6. The toxicity on MM cells and non-MM cells was analyzed by flow cytometry and expressed in % of control.
(§2) Bone marrow samples were collected after patients' written informed consent in accordance with the Declaration of Helsinki and institutional research board approval from Montpellier University hospital. Cells are obtained from […] of 5 patients with MM. Cells are obtained by density gradient separation and qualified by Flow cytometry.
(§3) Cells are cultured in Gibco® RPMI-1640 (Glutamax) medium (#6187-010) with 10% FBS at a density of 0.5×10^6 Cell/mL with 2 ng/mL of interleukin-6. Cells are seeded 24H after thawing and treated with various compounds during 72H.
(§4) Total cells were counted with trypan blue and stained with the panel CD38-APC, CD138-PE (Beckman coulter) and analyzed by flow cytometry (Fortessa cytometer, BD Pharmigen). Tumorous MM cells were gated on CD38+ and CD138+.
(In general: In flow cytometry, cells or beads pass a laser one at a time.)

Data set [2] relates to MM cell lines. The data set can be described thus: Cell growth inhibition in panel of MM cell lines. To be noted: 96H. It is filed as cell-based, human. On the procedure: (§5) The panel of 17 HMCL cell lines were incubated with increasing concentrations of Ironomycin (A), AM23 (B) or vehicle for 96H.
(§6) HMCL cell lines were cultured for 4 days in 96-well flat-bottom microtiter plates in RPMI 1640 medium or DMEM medium, 10% or 20% FCS (control medium) in the presence of various compounds. The number of viable cells in culture was determined using the Cell Titer-Glo Luminescent Cell Viability Assay from Promega, Madison, WI, USA using a Centro LB 960 luminometer (Berthold Technologies, Bad Wildbad, Germany).
(§7) This test is based on quantitation of the intracellular ATP present, which signals the presence of metabolically active cells. Data are expressed as the mean percentage of six replicates, normalized to the untreated control.
The therapeutic interest of iron metabolism inhibitors AM5 (Ironomycin) and AM23 was further investigated using large collection of 18 MM cell lines (Moreaux J et al. Haematologica 2011; Vikova V et al. Theranostics 2019). The IC50 of Ironomycin and AM23 respectively are illustrated in the Table 5 hereunder: […]

The subject of data set [3] is non-MM cells. The data set can be described thus: Assay on primary samples of patients, non-MM cells (flow cytometry). It is filed as cell-based, human. The following applies: primary samples of patients, n=5. On the procedure:
as §1, §2, §3, §4

Data set [4] concerns XG21. The data set can be described thus: Cell viability assay (Cell Titer-Glo), HMCL. In kind it is cell-based. The following applies: Homo sapiens, 96 h. On the procedure:
as §5, §6, §7
Background: ATP-based viability assays read luminescence as a measure of living cells.

Data set [5] relates to XG6. The data set can be described thus: Cell viability assay (Cell Titer-Glo), HMCL. It is filed as cell-based. To be noted: Homo sapiens, XG6, 96 h. On the procedure: as §5, §6, §7
Data set [6] concerns XG-1. Put plainly: Cell viability assay (Cell Titer-Glo), HMCL. In kind it is cell-based. The following applies: Homo sapiens, 96 h. On the procedure:
as §5, §6, §7

In data set [7] the test system is XG20. Put plainly: Cell viability assay (Cell Titer-Glo), HMCL. In kind it is cell-based. To be noted: Homo sapiens, 96 h. On the procedure: as §5, §6, §7
Data set [8] has as its system XG12. Put plainly: Cell viability assay (Cell Titer-Glo), HMCL. It is filed as cell-based. To be noted: Homo sapiens, 96 h. Here is the method: as §5, §6, §7
For data set [9], the system named is MOLP-8. The data set can be described thus: Cell viability assay (Cell Titer-Glo), HMCL. It is filed as cell-based. To be noted: Homo sapiens, MOLP-8, 96 h. Here is the method:
as §5, §6, §7

The test system of data set [10] is XG-7. The data set can be described thus: Cell viability assay (Cell Titer-Glo), HMCL. In kind it is cell-based. To be noted: Homo sapiens, 96 h. Here is the method:
as §5, §6, §7

Data set [11] has as its system XG24. Put plainly: Cell viability assay (Cell Titer-Glo), HMCL. In kind it is cell-based. The following applies: Homo sapiens, 96 h. On the procedure: as §5, §6, §7
For data set [12], the system named is XG28. Put plainly: Cell viability assay (Cell Titer-Glo), HMCL. The following applies: Homo sapiens, 96 h. In kind it is cell-based. Here is the method: as §5, §6, §7
The test system of data set [13] is OPM-2. The data set can be described thus: Cell viability assay (Cell Titer-Glo), HMCL. It is filed as cell-based. To be noted: Homo sapiens, OPM-2, 96 h. Here is the method: as §5, §6, §7

Molecules are shown by their SMILES.

On to `CC[C@@H](C(=O)[C@@H](C)[C@@H](O)[C@H](C)[C@@H]1O[C@@H]([C@@H](CC)C(=O)O)CC[C@@H]1C)[C@H]1O[C@]2(C=C[C@@H](NC3CC3)[C@]3(CC[C@@](C)([C@H]4CC[C@](O)(CC)[C@H](C)O4)O3)O2)[C@H](C)C[C@@H]1C` [AM23], for which the “toxicity on primary MM cells of patients” value in [1] is reported as “validated the therapeutic interest”. For the same compound, the “cell growth inhibition / toxicity on MM cell lines” value in data set [2] is reported as “validated the toxicity”; in [2] (listed as AM-23) it was “kill MM cells with nanomolar concentration”. Further, the “toxicity for non-tumoral cells” value in [3] is given as “without significant toxicity”. Besides, the IC50 (usually the point on the concentration scale where inhibition reaches its midpoint) in data set [4] was found to be 34.3 nM; in [5] it was 3.8 nM; in [6], 21.1 nM; in data set [7] it was 154 nM; in [8], 0.8 nM; in data set [9], 13 nM. Besides, the IC50 in data set [10] was determined as 11.8 nM; in data set [11], 8.8 nM; in data set [12], 13 nM; in data set [13], 1.4 nM.

Source of the values: US20250281449A1, “NITROGEN-CONTAINING ANALOGS OF SALINOMYCIN FOR USE IN MULTIPLE MYELOMA (MM)” (Centre National de la Recherche Scientifique, priority 2021, published 2025).
